Results reported in PubChem BioAssay (NCI).
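Following 48 hours of exposure in 96-well plates, responses at five concentrations were used to interpolate endpoints linearly. GI50 = concentration required for 50% inhibition of growth. TGI: concentration producing complete growth inhibition.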

How the values were obtained:
Assay in all cases: growth of human tumour cells (NCI), 48 h
DU-145 prostate = test system: DU-145 prostate
KM12 colon = test system: KM12 colon
NCI-H460 lung = test system: NCI-H460 lung
MDA-MB-435 = test system: MDA-MB-435
UACC-62 melanoma = test system: UACC-62 melanoma
SN12C renal = test system: SN12C renal
HCT-116 colon = test system: HCT-116 colon
SK-MEL-5 melanoma = test system: SK-MEL-5 melanoma
T-47D breast = test system: T-47D breast
SF-295 CNS = test system: SF-295 CNS
M14 melanoma = test system: M14 melanoma
OVCAR-8 ovarian = test system: OVCAR-8 ovarian
OVCAR-5 ovarian = test system: OVCAR-5 ovarian
LOX IMVI melanoma = test system: LOX IMVI melanoma
RPMI-8226 leukemia = test system: RPMI-8226 leukemia
A498 renal = test system: A498 renal
IGROV1 ovarian = test system: IGROV1 ovarian
MCF7 breast = test system: MCF7 breast
COLO 205 colon = test system: COLO 205 colon
NCI-H23 lung = test system: NCI-H23 lung
UO-31 renal = test system: UO-31 renal
U251 CNS = test system: U251 CNS
SF-539 CNS = test system: SF-539 CNS
SK-MEL-2 melanoma = test system: SK-MEL-2 melanoma
EKVX NSCLC = test system: EKVX NSCLC
CCRF-CEM leukemia = test system: CCRF-CEM leukemia
HL-60(TB) leukemia = test system: HL-60(TB) leukemia
HT29 colon = test system: HT29 colon
OVCAR-4 ovarian = test system: OVCAR-4 ovarian
SR leukemia = test system: SR leukemia
RXF 393 renal = test system: RXF 393 renal
SNB-19 CNS = test system: SNB-19 CNS
MDA-MB-231 breast = test system: MDA-MB-231 breast
MOLT-4 leukemia = test system: MOLT-4 leukemia
HOP-92 NSCLC = test system: HOP-92 NSCLC
HCC-2998 colon = test system: HCC-2998 colon
SK-OV-3 ovarian = test system: SK-OV-3 ovarian
ACHN renal = test system: ACHN renal
CAKI-1 renal = test system: CAKI-1 renal
PC-3 prostate = test system: PC-3 prostate
OVCAR-3 ovarian = test system: OVCAR-3 ovarian
HCT-15 colon = test system: HCT-15 colon
MALME-3M melanoma = test system: MALME-3M melanoma
786-0 renal = test system: 786-0 renal
K-562 leukemia = test system: K-562 leukemia
TK-10 renal = test system: TK-10 renal
BT-549 breast = test system: BT-549 breast
NCI-H522 lung = test system: NCI-H522 lung
HS 578T breast = test system: HS 578T breast
SK-MEL-28 melanoma = test system: SK-MEL-28 melanoma
A549 NSCLC = test system: A549 NSCLC
SW-620 colon = test system: SW-620 colon
SNB-75 CNS = test system: SNB-75 CNS
SF-268 CNS = test system: SF-268 CNS
NCI-H226 lung = test system: NCI-H226 lung
HOP-62 NSCLC = test system: HOP-62 NSCLC
NCI/ADR-RES ovarian = test system: NCI/ADR-RES ovarian

`NNCCc1ccc(NC(=O)CCCc2ccc(C(=O)Nc3ccccc3N)cc2)cc1` was tested, and the GI50 (DU-145 prostate) was 14.5 µM, the TGI (DU-145 prostate) was > 100 µM and the GI50 (KM12 colon) was 29.1 µM. For the same molecule, the TGI (KM12 colon) was > 100 µM, the GI50 (NCI-H460 lung) was 13.3 µM and the TGI (NCI-H460 lung) was > 100 µM. For the same molecule, the GI50 (MDA-MB-435) was 9.71 µM, the TGI (MDA-MB-435) was > 100 µM and the GI50 (UACC-62 melanoma) was 3.79 µM. For the same molecule, the TGI (UACC-62 melanoma) was 31.8 µM, the GI50 (SN12C renal) was 28 µM and the TGI (SN12C renal) was > 100 µM. For the same molecule, the GI50 (HCT-116 colon) was 2.75 µM, the TGI (HCT-116 colon) was > 100 µM and the GI50 (SK-MEL-5 melanoma) was 6.19 µM. The TGI (SK-MEL-5 melanoma) was 21.7 µM, the GI50 (T-47D breast) was 4.34 µM and the TGI (T-47D breast) was > 100 µM. The GI50 (SF-295 CNS) was 13.3 µM, the TGI (SF-295 CNS) was > 100 µM and the GI50 (M14 melanoma) was 15.2 µM. The TGI (M14 melanoma) was > 100 µM, the GI50 (OVCAR-8 ovarian) was 8.52 µM and the TGI (OVCAR-8 ovarian) was > 100 µM. For the same molecule, the GI50 (OVCAR-5 ovarian) was 8.15 µM, the TGI (OVCAR-5 ovarian) was > 100 µM and the GI50 (LOX IMVI melanoma) was 15.9 µM. For the same molecule, the TGI (LOX IMVI melanoma) was > 100 µM, the GI50 (RPMI-8226 leukemia) was 3.18 µM and the TGI (RPMI-8226 leukemia) was > 100 µM. The GI50 (A498 renal) was 6.54 µM, the TGI (A498 renal) was 28.5 µM and the GI50 (IGROV1 ovarian) was 31 µM. The TGI (IGROV1 ovarian) was > 100 µM, the GI50 (MCF7 breast) was 6.84 µM and the TGI (MCF7 breast) was > 100 µM. It also gave a GI50 (COLO 205 colon) of 8.48 µM, a TGI (COLO 205 colon) of 40.7 µM and a GI50 (NCI-H23 lung) of 21 µM. The TGI (NCI-H23 lung) was > 100 µM, the GI50 (UO-31 renal) was 4.8 µM and the TGI (UO-31 renal) was 53.6 µM. For the same molecule, the GI50 (U251 CNS) was 12 µM, the TGI (U251 CNS) was > 100 µM and the GI50 (SF-539 CNS) was 9.57 µM. For the same molecule, the TGI (SF-539 CNS) was > 100 µM, the GI50 (SK-MEL-2 melanoma) was 7.49 µM and the TGI (SK-MEL-2 melanoma) was > 100 µM. For the same molecule, the GI50 (EKVX NSCLC) was 51.1 µM, the TGI (EKVX NSCLC) was > 100 µM and the GI50 (CCRF-CEM leukemia) was 3.35 µM. The TGI (CCRF-CEM leukemia) was > 100 µM, the GI50 (HL-60(TB) leukemia) was 3.34 µM and the TGI (HL-60(TB) leukemia) was 25 µM. The GI50 (HT29 colon) was 4.07 µM, the TGI (HT29 colon) was > 100 µM and the GI50 (OVCAR-4 ovarian) was 42.4 µM. The TGI (OVCAR-4 ovarian) was > 100 µM, the GI50 (SR leukemia) was 3.24 µM and the TGI (SR leukemia) was > 100 µM. The GI50 (RXF 393 renal) was 12.6 µM, the TGI (RXF 393 renal) was 53.9 µM and the GI50 (SNB-19 CNS) was 63.1 µM. For the same molecule, the TGI (SNB-19 CNS) was > 100 µM, the GI50 (MDA-MB-231 breast) was 17.4 µM and the TGI (MDA-MB-231 breast) was > 100 µM. The GI50 (MOLT-4 leukemia) was 3.22 µM, the TGI (MOLT-4 leukemia) was 26.8 µM and the GI50 (HOP-92 NSCLC) was 7.26 µM. The TGI (HOP-92 NSCLC) was > 100 µM, the GI50 (HCC-2998 colon) was 18 µM and the TGI (HCC-2998 colon) was > 100 µM. For the same molecule, the GI50 (SK-OV-3 ovarian) was 18.2 µM, the TGI (SK-OV-3 ovarian) was > 100 µM and the GI50 (ACHN renal) was 17.7 µM. For the same molecule, the TGI (ACHN renal) was > 100 µM, the GI50 (CAKI-1 renal) was 7.99 µM and the TGI (CAKI-1 renal) was > 100 µM. For the same molecule, the GI50 (PC-3 prostate) was 12 µM, the TGI (PC-3 prostate) was > 100 µM and the GI50 (OVCAR-3 ovarian) was 9.42 µM. For the same molecule, the TGI (OVCAR-3 ovarian) was > 100 µM, the GI50 (HCT-15 colon) was 45.6 µM and the TGI (HCT-15 colon) was > 100 µM. It also gave a GI50 (MALME-3M melanoma) of 2.71 µM, a TGI (MALME-3M melanoma) of 50.8 µM and a GI50 (786-0 renal) of 15.7 µM. For the same molecule, the TGI (786-0 renal) was > 100 µM, the GI50 (K-562 leukemia) was 3.58 µM and the TGI (K-562 leukemia) was > 100 µM. The GI50 (TK-10 renal) was 2.03 µM, the TGI (TK-10 renal) was > 100 µM and the GI50 (BT-549 breast) was 9.5 µM. The TGI (BT-549 breast) was > 100 µM, the GI50 (NCI-H522 lung) was 8.13 µM and the TGI (NCI-H522 lung) was > 100 µM. The GI50 (HS 578T breast) was 37.8 µM, the TGI (HS 578T breast) was > 100 µM and the GI50 (SK-MEL-28 melanoma) was 12.1 µM. The TGI (SK-MEL-28 melanoma) was > 100 µM, the GI50 (A549 NSCLC) was 31.9 µM and the TGI (A549 NSCLC) was > 100 µM. For the same molecule, the GI50 (SW-620 colon) was 5.77 µM, the TGI (SW-620 colon) was > 100 µM and the GI50 (SNB-75 CNS) was 32.8 µM. The TGI (SNB-75 CNS) was > 100 µM, the GI50 (SF-268 CNS) was 5.97 µM and the TGI (SF-268 CNS) was > 100 µM. The GI50 (NCI-H226 lung) was 16 µM, the TGI (NCI-H226 lung) was > 100 µM and the GI50 (HOP-62 NSCLC) was 10.8 µM. The TGI (HOP-62 NSCLC) was > 100 µM, the GI50 (NCI/ADR-RES ovarian) was 21.6 µM and the TGI (NCI/ADR-RES ovarian) was > 100 µM.
